# Target: T1, human wild-type (WT)-pendrin (Homo sapiens, UniProt O43511)
# T1 construct: expressed in transfected cells
# T1 sequence (O43511 1-780): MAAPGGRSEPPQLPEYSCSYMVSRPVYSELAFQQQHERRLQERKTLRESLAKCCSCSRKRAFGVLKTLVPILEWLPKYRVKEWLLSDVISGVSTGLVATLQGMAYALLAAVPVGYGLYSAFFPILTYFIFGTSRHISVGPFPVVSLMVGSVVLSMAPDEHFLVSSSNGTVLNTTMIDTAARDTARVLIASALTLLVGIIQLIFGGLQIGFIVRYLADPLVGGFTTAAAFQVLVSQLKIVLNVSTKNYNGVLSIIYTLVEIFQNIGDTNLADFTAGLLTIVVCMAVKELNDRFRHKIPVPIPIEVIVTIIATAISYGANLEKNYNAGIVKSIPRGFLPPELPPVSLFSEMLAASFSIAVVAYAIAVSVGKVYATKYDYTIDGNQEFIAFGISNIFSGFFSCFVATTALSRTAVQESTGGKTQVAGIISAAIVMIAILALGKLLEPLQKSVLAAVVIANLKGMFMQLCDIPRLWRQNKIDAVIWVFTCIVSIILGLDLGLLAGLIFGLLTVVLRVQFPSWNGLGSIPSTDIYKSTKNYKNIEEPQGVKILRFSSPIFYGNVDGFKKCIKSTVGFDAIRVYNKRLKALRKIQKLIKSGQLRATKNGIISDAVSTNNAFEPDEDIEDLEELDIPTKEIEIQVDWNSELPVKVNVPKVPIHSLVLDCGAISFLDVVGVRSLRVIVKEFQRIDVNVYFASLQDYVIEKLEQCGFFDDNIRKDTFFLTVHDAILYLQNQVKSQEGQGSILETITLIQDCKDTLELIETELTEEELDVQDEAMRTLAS
# Assay: Pendrin-mediated Cl^−/I^− exchange activity, YFP fluorescence in CHO-K1 cells
# Type: cell-based
# Conditions: 30 μM
row,Pendrin inhibitory activity at 30 μM (%),SMILES
1,2.1,"Cc1ncsc1C=C(NC(=O)c1ccc(C(C)(C)C)cc1)C(=O)O [G32, 2-(4-(tert-butyl)benzamido)-3-(4-methylthiazol-5-yl)acrylate]"
2,4.1,"O=C(O)C(=Cc1ccco1)NC(=O)c1ccc(Br)cc1 [G21, 2-(4-Bromobenzamido)-3-(furan-2-yl)acrylate]"
3,1.8,"O=C(O)C(=Cc1ccco1)NC(=O)c1ccc(Br)cc1 [G16, 2-(4-Bromobenzamido)-3-(furan-2-yl)acrylate]"

# Same assay, conditions: CHO-K1, 30 μM; read-out: Pendrin inhibitory activity at 30 μM (%)
row,inhibition at 30 µM [%],SMILES
1,3.1,"CCCc1ccc(C2=NC(=Cc3scnc3C)C(=O)O2)cc1 [F137, 4-((4-Methylthiazol-5-yl)methylene)-2-(4-propylphenyl)oxazol-5(4H)-one]"
2,3.4,"CCCCCCc1ccc(C2=NC(=Cc3ccc[nH]3)C(=O)O2)cc1 [F147, 4-((1H-pyrrol-2-yl)methylene)-2-(4-hexylphenyl)oxazol-5(4H)-one]"
3,3.8,"CC(C)(C)c1ccc(C2=NC(=Cc3ccccc3OC(F)F)C(=O)O2)cc1 [F122, 2-(4-(tert-butyl)phenyl)-4-(2-(difluoromethoxy)benzylidene)oxazol-5(4H)-one]"
4,3.1,"COc1ccc(C2=NC(=Cc3ccc(C(=O)O)cc3)C(=O)O2)cc1 [F60, 4-((2-(4-Methoxyphenyl)-5-oxooxazol-4(5H)-ylidene)methyl)benzoate]"
5,3.4,"Cc1ccc(C=C2N=C(c3ccc(C(C)(C)C)cc3)OC2=O)s1 [F96, 2-(4-(tert-butyl)phenyl)-4-((5-methylthiophen-2-yl)methylene)oxazol-5(4H)-one]"
6,3.9,"O=C1OC(c2cccc3ccccc23)=NC1=Cc1ccc[nH]1 [F30, 4-((1H-pyrrol-2-yl)methylene)-2-(naphthalen-1-yl)oxazol-5(4H)-one]"
7,3.6,"COc1ccc(C2=NC(=Cc3cccs3)C(=O)O2)cc1 [F87, 2-(4-Methoxyphenyl)-4-(thiophen-2-ylmethylene)oxazol-5 (4H)-one]"
8,3.5,"O=C1OC(c2ccc(-c3ccccc3)cc2)=NC1=Cc1cccs1 [F37, 2-([1,1′-biphenyl]-4-yl)-4-(thiophen-2-ylmethylene)oxazol-5 (4H)-one]"
9,3.9,"Cc1ncsc1C=C(NC(=O)c1ccc(C(C)(C)C)cc1)C(=O)O [G9, 2-(4-(tert-butyl)benzamido)-3-(4-methylthiazol-5-yl)acrylate]"
10,26.1,"CCCc1ccc(C2=NC(=Cc3ccco3)C(=O)O2)cc1 [F146, 4-(Furan-2-ylmethylene)-2-(4-propylphenyl)oxazol-5(4H)-one]"
11,88.6,"CCCCCc1ccc(C(=O)NC(=Cc2cccs2)C(=O)O)cc1 [G40, 2-(4-Pentylbenzamido)-3-(thiophen-2-yl)acrylate]"
12,1.9,"O=C1OC(c2cccs2)=NC1=Cc1ccc(N2CCCCC2)s1 [F120, 4-((5-(Piperidin-1-yl)thiophen-2-yl)methylene)-2-(thiophen-2-yl)oxazol-5 (4H)-one]"
13,3.3,"CC(=O)Oc1ccc(C2=NC(=Cc3cccs3)C(=O)O2)cc1 [F90, 4-(5-Oxo-4-(thiophen-2-ylmethylene)-4,5-dihydrooxazol-2-yl)phenylacetate]"
14,2.4,"Cc1ncsc1C=C1N=C(c2ccc(Br)cc2)OC1=O [F22, 2-(4-Bromophenyl)-4-((4-methylthiazol-5-yl)methylene)oxazol-5(4H)-one]"
15,3.8,"CCOc1cc(C=C2N=C(c3ccc(NC(C)=O)cc3)OC2=O)ccc1OC(=O)c1cccs1 [F69, 4-((2-(4-Acetamidophenyl)-5-oxooxazol-4(5H)-ylidene)methyl)-2-ethoxyphenylthiophene-2-carboxylate]"
16,3.9,"O=C1OC(c2ccccc2I)=NC1=Cc1ccc(-n2cncn2)cc1 [F132, 4-(4-(1H-1,2,4-thiazol-1-yl)benzylidene)-2-(2-iodophenyl)oxazol-5(4H)-one]"
17,89.6,"CC(C)NS(=O)(=O)c1ccc(C2=NC(=Cc3cccs3)C(=O)O2)cc1 [F36, N-isopropyl-4-(5-oxo-4-(thiophen-2-ylmethylene)-4,5-dihydrooxazol-2-yl)benzene sulfonamide]"
18,53.5,"CCCc1ccc(C(=O)NC(=Cc2ccc[nH]2)C(=O)O)cc1 [G28, 2-(4-Propylbenzamido)-3-(1H-pyrrol-2-yl)acrylate]"
19,42.1,"CC(C)(C)c1ccc(C(=O)NC(=Cc2csc3ccccc23)C(=O)O)cc1 [G25, 3-(Benzo[b]thiophen-3-yl)-2-(4-(tert-butyl)benzamido)acrylate]"
20,4.4,"Cc1nn(-c2ccccc2)c(Cl)c1C=C1N=C(c2cccc(Br)c2)OC1=O [F71, 2-(3-Bromophenyl)-4-((5-chloro-3-methyl-1-phenyl-1H-pyrazol-4-yl)methylene)oxazol-5(4H)-one]"

row,inhibition at 30 µM [%],SMILES
1,2.1,"CCN(CC)S(=O)(=O)c1cccc(C2=NC(=Cc3cnn(C)c3)C(=O)O2)c1 [F131, N,N-diethyl-3-(4-((1-methyl-1H-pyrazol-4-yl)methylene)-5-oxo-4,5-dihydrooxazol-2-yl)benzenesulfonamide]"
2,4.2,"COC(=O)c1ccc(C2=NC(=Cc3ccco3)C(=O)O2)cc1 [F31, Methyl 4-(4-(furan-2-ylmethylene)-5-oxo-4,5-dihydrooxazol-2-yl)benzoate]"
3,5.4,"CC(C)(C)c1ccc(C(=O)NC(=Cc2cc3ccccc3[nH]2)C(=O)O)cc1 [G33, 2-(4-(tert-butyl)benzamido)-3-(1H-indol-2-yl)acrylate]"
4,1.9,"CC(C)(C)c1ccc(C2=NC(=Cc3ccccc3OS(=O)(=O)c3ccccc3)C(=O)O2)cc1 [F80, 2-((2-(4-(tert-butyl)phenyl)-5-oxooxazol-4(5H)-ylidene)methyl)phenylbenznesulfonate]"
5,30.8,"Cc1ccc(C2=NC(=Cc3cccs3)C(=O)O2)s1 [F111, 2-(5-methylthiophen-2-yl)-4-(thiophen-2-ylmethylene)oxazol-5 (4H)-one]"
6,3.4,"COc1ccc2[nH]c(=O)c(C=C3N=C(c4ccccc4)OC3=O)cc2c1 [F84, 4-((6-Methoxy-2-oxo-1,2-dihydroquinolin-3-yl)methylene)-2-phenyloxazol-5(4H)-one]"
7,2.9,"CC(C)Cc1ccc(C2=NC(=Cc3csc4ccccc34)C(=O)O2)cc1 [F21, 4-(Benzo[b]thiophen-3-ylmethylene)-2-(4-isobutylphenyl)oxazol-5(4H)-one]"
8,2.1,"O=C1OC(c2cccs2)=NC1=Cc1ccc(Br)s1 [F118, 4-((5-Bromothiophen-2-yl)methylene)-2-(thiophen-2-yl)oxazol-5(4H)-one]"
9,3.9,"O=C(O)C(=Cc1cccs1)NC(=O)c1ccc(Br)cc1 [G19, 2-(4-Bromobenzamido)-3-(thiophen-2-yl)acrylate]"
10,57.5,"CC(C)(C)c1ccc(C2=NC(=Cc3cncs3)C(=O)O2)cc1 [F2, 2-(4-(tert-butyl)phenyl)-4-(thiazol-5-ylmethylene)oxazol-5(4H)-one]"
11,2.4,"COc1ccc(C2=NC(=Cc3ccc(Cl)s3)C(=O)O2)cc1 [F99, 4-((5-Chlorothiophen-2-yl)methylene)-2-(4-methoxyphenyl)oxazol-5(4H)-one]"
12,55.6,"CC(C)(C)c1ccc(C(=O)NC(=Cc2cccs2)C(=O)O)cc1 [G3, 2-(4-(tert-butyl)benzamido)-3-(thiophen-2-yl)acrylate]"
13,1.7,"O=C1OC(c2ccccc2)=NC1=Cc1ccc(OC(=O)c2ccco2)cc1 [F78, 4-((5-oxo-2-phenyloxazol-4(5H)-ylidene)methyl)phenylfuran-2-carboxylate]"
14,2.2,"O=C1OC(c2ccccc2Cl)=NC1=Cc1cccs1 [F92, 2-(2-Chlorophenyl)-4-(thiophen-2-ylmethylene)oxazol-5(4H)-one]"
15,52.5,"CC(C)(C)c1ccc(C2=NC(=Cc3ccsc3)C(=O)O2)cc1 [F9, 2-(4-(tert-butyl)phenyl)-4-(thiophen-3-ylmethylene)oxazol-5 (4H)-one]"
16,1,"COc1ccccc1C1=NC(=Cc2cnn(C)c2)C(=O)O1 [F125, 2-(2-methoxyphenyl)-4-((1-methyl-1H-pyrazol-4-yl)methylene)oxazol-5(4H)-one]"
17,1.8,"CN(C)c1ccc(C=C2N=C(c3sc4ccccc4c3Cl)OC2=O)cc1 [F59, 2-(3-Chlorobenzo[b]thiophen-2-yl)-4-(4-(dimethylamino)benzylidene)oxazol-5(4H)-one]"
18,4.1,"COc1cc(C=C2N=C(c3ccccc3OC)OC2=O)ccc1OCc1c(C)noc1C [F133, 4-(4-((3,5-Dimethylisoxazol-4-yl)methoxy)-3-methoxybenzylidene)-2-(2-methoxyphenyl)oxazol-5 (4H)-one]"
19,100,CC(C)(C#N)c1ccc(C2=NC(=Cc3ccc[nH]3)C(=O)O2)cc1 [F148]

# Same assay, conditions: compounds showing pendrin inhibitory activity of 50% or more at 30 μM; read-out: IC50
row,IC50 [µM],SMILES
1,13.4 ± 1.69,"CCCCCc1ccc(C(=O)NC(=Cc2cccs2)C(=O)O)cc1 [G40, 2-(4-Pentylbenzamido)-3-(thiophen-2-yl)acrylate]"
2,14.8 ± 2.01,"CC(C)NS(=O)(=O)c1ccc(C2=NC(=Cc3cccs3)C(=O)O2)cc1 [F36, N-isopropyl-4-(5-oxo-4-(thiophen-2-ylmethylene)-4,5-dihydrooxazol-2-yl)benzene sulfonamide]"
3,28.9 ± 2.18,"CCCc1ccc(C(=O)NC(=Cc2ccc[nH]2)C(=O)O)cc1 [G28, 2-(4-Propylbenzamido)-3-(1H-pyrrol-2-yl)acrylate]"
4,26.9 ± 2.95,"CC(C)(C)c1ccc(C2=NC(=Cc3cncs3)C(=O)O2)cc1 [F2, 2-(4-(tert-butyl)phenyl)-4-(thiazol-5-ylmethylene)oxazol-5(4H)-one]"
5,26.8 ± 2.54,"CC(C)(C)c1ccc(C(=O)NC(=Cc2cccs2)C(=O)O)cc1 [G3, 2-(4-(tert-butyl)benzamido)-3-(thiophen-2-yl)acrylate]"
6,28.7 ± 2.25,"CC(C)(C)c1ccc(C2=NC(=Cc3ccsc3)C(=O)O2)cc1 [F9, 2-(4-(tert-butyl)phenyl)-4-(thiophen-3-ylmethylene)oxazol-5 (4H)-one]"
7,0.2 ± 0.06,CC(C)(C#N)c1ccc(C2=NC(=Cc3ccc[nH]3)C(=O)O2)cc1 [F148]

# — patent US12691101B2, “Compound and method for preventing or treating of respiratory diseases comprising the same as an active ingredient” (YONSEI UNIVERSITY, UNIVERSITY - INDUSTRY FOUNDATION (UIF), priority 2019, dated 2026)
